The results in this text go back to patent US8410273B2, “Cyclic compound having substituted phenyl group” (Daiichi Sankyo Company, Limited, priority 2009, dated 2013).

For the assay, the system named is female F344 rats. Put plainly: Effect on bone density (femur, DXA) after oophorectomy or sham surgery. In kind it is in vivo. Conditions: at 3 mg/kg or less, orally once a day, six days a week, six weeks. The method, then:
Eight to 12 week old female F344 rats were purchased from Charles River Laboratories and used in the following experiment. Rats were anesthetized with an intraperitoneal administration of 40 mg/kg of Somnopentyl (Kyoritsu Seiyaku Corporation), and then oophorectomy or sham surgery was performed. From the day after surgery, a suspension of the test compound in a 0.5% methyl cellulose solution (Wako Pure Chemical Industries, Ltd. Cat. No. 133-14255) was orally administered once a day, six days a week. Six weeks after administration, the rats were euthanized by removal of whole blood from the lower abdominal aorta under Somnopentyl anesthesia, and the left and right femur was excised.
After removal of soft tissues, the bone density of the femur thus excised was measured by a DXA apparatus, DCS-600R (Aloka Co., Ltd.). The bone density was assessed in the whole femur as well as in three equal sections of the whole femur, namely the proximal end, the shaft, and the distal end.

For the compound `NC(=O)c1ccc2cncc(-c3ccc(OCCOC4CCOCC4)cc3)c2n1` [Example 9, 8-{4-[2-(Tetrahydro-2H-pyran-4-yloxy)ethoxy]phenyl}-1,6-naphthyridine-2-carboxamide], the “bone density of the femur” value was “significantly increased the bone density”. Then `Cn1ccc2cc(-c3cncc4ccc(C(N)=O)cc34)ccc21` [Example 33], with “significantly increased the bone density”; and `NC(=O)c1ccc2cncc(-c3ccc(OCCO)cc3)c2c1` [Example 36], with “significantly increased the bone density”; and `NC(=O)c1ccc2cncc(-c3ccc(Cl)cc3)c2c1` [Example 118], with “significantly increased the bone density”.
